Assay results: patent publication US4602040A, “Meclofenamic acid topical pharmaceutical composition” (Warner-Lambert Company, priority 1985, dated 1986)

How the values were obtained:
carrageenan edema [1] = assay: carrageenan-induced paw edema, topical versus oral / distant-site administration; type: in vivo, C57BL/6 mice
Procedure: (§1) Method: Carrageenan edema was induced in mice by previously published methods (Levy, L., Life Sciences 8:601, 1969). Briefly, mice were injected in the left rear footpad with either 25 ul or 50 ul of a 1% solution of carrageenan in saline and in the contralateral footpad with a similar volume of saline. At various time intervals thereafter, the swelling was assessed in each of the rear footpads by mercury plethysmography.
(§2) In this example, female C57BL/6 or CD-1 mice were used in all studies, and swelling was assessed five hours after carrageenan injection by mercury plethysmography. Net edema was determined by subtracting the volume of the saline-injected foot from the volume of the carrageenan-injected foot. Meclofenamic acid was administered either topically or perorally one hour after carrageenan injection in a vehicle containing 50% PEG 400 monolaurate, 10 lantrol AWS, and 40% isopropyl alcohol. When applied topically, the appropriate hindpaw was dipped to the hairline in the meclofenamic acid solution or vehicle and rubbed gently for 15 seconds by a technician wearing rubber gloves. Approximately 50 ul of the meclofenamic acid or vehicle solution was used to treat each hindpaw.
(§3) Meclofenamic acid was administered orally by gavage needle in a volume of 50 ul of the monolaurate/lantrol AWS/isopropyl alcohol vehicle used above. Statistical differences in swelling between experimental groups were determined by student's t-test.
To determine whether the observed activity of meclofenamic acid was actually due to topical rather than oral (as a result of preening) absorption, meclofenamic acid compositions (containing 1, 3 or 5% active ingredient in the above vehicle) were administered orally or topically (to the carrageenan-injected paw) and the effects on swelling were determined.

[2] = solubility of the drug in water and organic solvents; type: physicochemical
carrageenan edema [3] = assay: carrageenan-induced paw edema, topical meclofenamic acid, CD-1 mice; type: in vivo
Procedure: as §1
as §2, with “Approximately 50 ul of the meclofenamic acid or vehicle solution was used to treat each hindpaw.” left out
as §3

carrageenan edema [4] = assay: carrageenan-induced paw edema, topical meclofenamic acid, C57BL/6 mice; type: in vivo
Procedure: as §1, §2, §3

[5] = octanol/water partition coefficient; type: physicochemical
[6] = solubility in water-miscible solvents; type: physicochemical

Cc1ccc(Cl)c(Nc2ccccc2C(=O)O)c1Cl [meclofenamic acid]
inhibition of swelling, carrageenan-injected foot versus distant site (carrageenan edema [1]; topical to carrageenan-injected foot vs distant site (saline-injected foot), 1, 3, and 5% concentrations, p<0.05): significantly (p<0.05) more inhibitory
inhibition of swelling, topical versus oral (carrageenan edema [1]; topical to carrageenan-injected foot vs oral, 1, 3, and 5% concentrations, p<0.05): significantly (p<0.05) more inhibitory
local anti-inflammatory activity (carrageenan edema [1]; topically applied, data from Examples 5 and 6): significant local anti-inflammatory activity
solubility in glycerin, isopropyl myristate and mineral oil ([2]; glycerin, isopropyl myristate, mineral oil): insoluble
solubility in propylene glycol, ethyl alcohol and linoleic acid ([2]; propylene glycol, ethyl alcohol, linoleic acid): less than 5%
water solubility ([2]; water): virtually water-insoluble
reduction in swelling (in words) (carrageenan edema [3]; topical to carrageenan-injected foot one hour after carrageenan, swelling at five hours): dose-dependent reduction in swelling
inhibition of swelling (maximum effect) (carrageenan edema [3]; topical, 5% concentration, five hours after carrageenan): 36.4%
sensitivity of C57BL/6 mice to the effects of meclofenamic acid (carrageenan edema [4]; C57BL/6 compared with CD-1 mice, topical): slightly more sensitive
reduction in swelling (in words) (carrageenan edema [4]; C57BL/6 mice, topical to carrageenan-injected foot one hour after carrageenan, swelling at five hours): dose-dependent reduction in swelling
inhibition of swelling (maximum effect) (carrageenan edema [4]; C57BL/6 mice, topical, 3% concentration, five hours after carrageenan): 49.7%
octanol/water partition coefficient [5]: highly favorable
solubility in water-miscible solvents with the aid of heating ([6]; heating up to 90° C., same solvents, compared with room temperature): more
solubility in water-miscible solvents ([6]; room temperature, PEG 400, PEG-8 monolaurate, PEG glucose ethers (Glucam-E 10, P-20), PEG-75 Lanolin Oil, PPG-5-Ceteth-10 Phosphate): ≤ 5%
